According to patent US20080131920A1, “Ion flux in biological processes, and methods related thereto” (priority 2005, published 2008):
Values joined by “and” are separate entries in the source; they are usually repeats but may differ in a detail not shown here. Identical values can stand only once.

Key:
primitive streak cells = assay: Cellular pH imaging of early chick blastoderm with SNARF-1-AM; type: in vivo
KCNK1 = KCNK1 expression in the regeneration bud; set-up: species or system Xenopus laevis; settings: in vivo
Source text: We then sought to functionally link V-ATPase activity to gene expression in the regeneration bud. Existing markers include Notch pathway genes^2. […] Because of this, and because the V-ATPase is expressed so soon following amputation, we utilized an earlier marker that is normally expressed by 12 hpa: the K^+ channel KCNK1 (FIG. 14E,E′). In larvae in which V-ATPase activity was abrogated by concanamycin or a function-blocking anti-V-ATPase antibody, KCNK1 expression was absent (N=13, FIG. 14F,F′-G,G′). Thus, V-ATPase is upstream of some gene expression in the regeneration bud, including other ion transporters also specifically expressed during early stages of regeneration.
Larvae were fixed in MEMFA (Sive et al., 2000) and dehydrated in methanol. In situ hybridization was carried out according to standard protocols (Harland, 1991, Xenopus laevis: Practical uses in cell and molecular biology 36: 685-695). The ion transporter constructs used to generate probes for in situ hybridization (ISH) experiments were: Kcnk1 (TWIK-1, BC042262, Open Biosystems), V-ATPase 16 kDa subunit (BE025959, RZPD). Plasmids were used to generate anti-sense riboprobes by in vitro transcription. […] Expression indicated represents consistent consensus patterns obtained from analysis of at least 15 larvae in all experiments. […]

[1] = system: Vmem of Xenopus blastomeres; assay: Membrane voltage imaging of blastomeres with DiBAC4(3); type: in vivo, Xenopus laevis; settings: control vs treated embryos
Source text: Embryos marked with Alexa 647 dextran in the right ventral cell (RV) at the four cell stage (to allow orientation with respect to both axes) were monitored using DiBAC4(3) at the 4, 8, 16, and 32 cell stages. At 16 cells, we observed hyperpolarization of the RV quadrant, relative to the LV quadrant. DiBAC4(3) intensity on the left was greater than on the right. This pattern and its embryological timing are consistent with the self-referencing probe data, and with the hypothesis that higher net H^+ efflux from the right side results in a difference in membrane potential across the ventral midline.
We confirmed this in Xenopus blastomeres by imaging Vmem in vivo in control and concanamycin-treated embryos. Predicting that the membrane would depolarize if H^+-V-ATPase-based proton efflux was inhibited, we monitored Vmem using the voltage-reporting dye DiBAC4(3).
Bis-(1,3-[…])-trimethine oxanol (DiBAC4(3), Molecular Probes, Eugene, Oreg.) is a membrane-permeant, fluorescent molecule that accumulates inside a cell in proportion to the membrane voltage. Because it is anionic, the more depolarized a cell, the greater the accumulation of DiBAC4(3) and the greater the intensity of intracellular, relative to extracellular, fluorescence. […]. The dye was excited with 488 nm light from an argon laser and a 20 nm band of emission wavelengths centered at 515 was collected.

H3P-positive cells = assay: H3P-positive proliferating cell quantification in amputated larvae; type: in vivo, Xenopus laevis; settings: for Average count of H3P-positive cells / Individual counts of H3P-positive cells: medial (flank) region
Source text: To gain insight into the cellular mechanisms by which the V-ATPase participates in regeneration, we characterized the pattern of proliferating cells during regeneration, using an antibody to the phosphorylated Histone 3B—a standard marker of cells in the G2/M transition of the cell cycle, useful for identifying mitotic cells in regenerating systems including Xenopus (Saka and Smith, 2001, Dev Biol 229: 307-18; Sanchez Alvarado, 2003, Current Opinion in Genetics & Development 13: 438-444). At 24 hpa, this subset of proliferating cells is homogenously distributed throughout the growing tail (FIG. 14A). […]. […].
H3P staining marks cells in the G2/M transition of the cell cycle, and is commonly used for identifying mitotic cells in regenerating systems including Xenopus (Saka and Smith, 2001, Dev Biol 229: 307-18; Sanchez Alvarado, 2003, Current Opinion in Genetics & Development 13: 438-444). Fixed specimens at the stages indicated were processed for H3P staining as above using an alkaline-phosphatase secondary. Bleaching of the natural pigments in samples allowed easy counting of H3P-positive cells. The close-up panel to the left illustrates the distinction between purple alkaline-phosphatase signal (H3P-positive nuclei) and brown melanocytes. […] Between 4 and 6 samples were counted for each stage and each condition. Similar numbers were obtained in immunohistochemistry performed on sections as in wholemounts and in fluorescent detection (i.e., reagent penetration and chromogenic staining are not confounding factors in H3P-positive cell detection). […]

Question: Which results are given for `C/C=C/[C@H]1O[C@@](O)([C@@H](C)[C@H](O)[C@H](C)[C@H]2OC(=O)/C(OC)=C/C(C)=C/[C@@H](C)[C@@H](O)[C@@H](CC)[C@@H](O)[C@H](C)C/C(C)=C/C=C/[C@@H]2OC)C[C@@H](O)[C@@H]1C` [concanamycin]?
Answer: pH of cells in the primitive streak (primitive streak cells): lowered the pH; KCNK1 expression in the regeneration bud (KCNK1): absent; effect on Vmem [1]: depolarizes Vmem; Average count of H3P-positive cells (H3P-positive cells; 24 hpa): 51; Individual counts of H3P-positive cells (H3P-positive cells; 24 hpa): 79 and 26 and 45 and 53; Average count of H3P-positive cells (H3P-positive cells; 48 hpa): 49; Individual counts of H3P-positive cells (H3P-positive cells; 48 hpa): 39 and 58 and 51 and 46; reduction in the number of proliferating cells (H3P-positive cells; by 24 hpa, general (flank)): 3 fold; change in number of proliferating cells in the mid-flank between 24 and 48 hpa (H3P-positive cells; in vivo): does not change significantly
